No end group written: not given here. succinylated CM‑chitin = succinylated carboxymethyl-chitin (CM-chitin), conjugated to the peptide; sulfated CM‑chitin = sulfated carboxymethyl-chitin (CM-chitin), conjugated to the peptide; sulfated succinylated CM‑chitin = sulfated succinylated CM-chitin; succinylated CM‑Chitin = succinylated CM-chitin; CM‑Chitin = carboxymethyl chitin
Experiments:
[1] = tested on: human plasma rich in platelet; assay: Platelet coagulation-inhibitory activity in vitro, transmittance by aggregometer; format: cell-based; details: 37° C., 3 minutes preincubation; for Platelet Coagulation-Inhibitory Action IC50, ADP Stimulation: ADP stimulation (50 μM ADP solution); for Platelet Coagulation-Inhibitory Action IC50, Collagen Stimulation: collagen stimulation (200 μg/ml collagen solution)
Description: The platelet coagulation-inhibitory effect of the CM-chitin derivative of the present invention was assayed, in vitro, using human plasma rich in platelet. The experimental method will be described below.
To fresh human blood, there was added 1/9 volume of a 3.8% sodium citrate solution, the resulting mixture was centrifuged (1000 rpm; for 10 minutes) and the upper layer was separated as a plasma rich in platelet. A lyophilized CM-chitin derivative was dissolved in physiological saline to give a plurality of solutions having various concentrations ranging from 0 to 1.5 mg/ml. Each of the solutions (25 μ1) was added to 200 µl of the plasma, incubated at 37° C. for 3 minutes, then a 50 μM of ADP (adenosine diphosphate) solution or a 200 μg/ml collagen solution was added to determine the extent of coagulation in terms of transmittance determined by an aggregometer.
Rate of Coagulation Inhibition=(1-T/T .)×100%
T . : transmittance observed when a salt of CM-chitin derivative was not added.
T : transmittance observed when a salt of CM-chitin derivative was added.

vitronectin = assay: Cell adhesion-inhibitory test against vitronectin (competitive assay, number of adhered cells); format: cell-based, human; details: endothelium cells of blood vessel, 37° C., one hour, 0 control 249
Excerpt: (§1) A method for determining the activity of the CM-chitin derivatives of the present invention for inhibiting adhesion of cells to fibronectin or vitronectin will be described below. The competitive assays used herein have widely been employed tin the field of biochemistry and are detailed in, for instance, "Method in Enzymology", 1981, 82, pp. 803-831; and J. P. KOKAI Nos. Hei 1-309682 and Hei 2-174797.
(§2) Commercially available fibroneotin (derived from human; purchased from Seikaqaku Kogyo K. K.) and vitronectin (derived from human; purchased from Funakoshi Co., Ltd.) each was diluted to 1.0 μ1/ml and 2.0 μ1/ml with PBS (NaH2 PO4 0.005 M+NaCl 0.07 M), 0.5 ml of the resulting diluted solution was dispensed into a plastic plate having 24 wells and incubated at 37° C. overnight to perform coating of the plate. Then bovine serum albumin (BSA 1%) was added followed by incubation at 37° C. for one hour for inhibiting the occurrence of nonspecific adsorption, then washing with PBS in the usual manner and sufficient drainage to give an adsorption plate.
[…] Each of the solutions (0.25 ml) was dispensed to the plate prepared above, 0.25 ml of a suspension of endothelium cells of blood vessel (4×10^6 cells/ml) was added to the plate and incubated at 37° C. for one hour to thus cause cohesion of the cells. The plate was washed three times with DMEM medium to remove non-adhesive cells, then the adhered cells were peeled off with a 0.025% EDTA trypsin solution and stained with a 2% Trypan Blue solution to determine the number of the adhered cells.

fibronectin = assay: Cell adhesion-inhibitory test against fibronectin (competitive assay, number of adhered cells); format: cell-based, human; details: endothelium cells of blood vessel, 37° C., one hour, 0 mg/ml control 160
Excerpt: as §1, §2
A CM-chitin derivative obtained through lyophilization was diluted with Dulbecco's Modified Eagles Medium (hereunder referred to as "DMEM") to give solutions of the CM-chitin derivative having concentrations of 0, 0.25, 0.5, 1.0 and 1.5 mg/ml respectively. Each of the solutions (0.25 ml) was dispensed to the plate prepared above, 0.25 ml of a suspension of endothelium cells of blood vessel (4×10^6 cells/ml) was added to the plate and incubated at 37° C. for one hour to thus cause cohesion of the cells. The plate was washed three times with DMEM medium to remove non-adhesive cells, then the adhered cells were peeled off with a 0.025% EDTA trypsin solution and stained with a 2% Trypan Blue solution to determine the number of the adhered cells.

[2] = concentration 10 mg/ml (so in the source)
[3] = concentration 50 mg/ml (so in the source)
[4] = concentration 100 mg/ml (so in the source)
[5] = concentration 300 mg/ml (so in the source)

| Substance | Platelet Coagulation-Inhibitory Action IC50, ADP Stimulation [1] [µg/mL] | Platelet Coagulation-Inhibitory Action IC50, Collagen Stimulation [1] [µg/mL] | Cell Adhesion-Inhibitory effect Against Vitronectin (number of adhered cells) (vitronectin; [2]) [cell/well] | Cell Adhesion-Inhibitory effect Against Vitronectin (number of adhered cells) (vitronectin; [3]) [cell/well] | Cell Adhesion-Inhibitory effect Against Vitronectin (number of adhered cells) (vitronectin; [4]) [cell/well] | Cell Adhesion-Inhibitory effect Against Vitronectin (number of adhered cells) (vitronectin; [5]) [cell/well] | Cell Adhesion-Inhibitory effect Against Fibronectin (number of adhered cells) (fibronectin; concentration 0.5 mg/ml) [cell/well] | Cell Adhesion-Inhibitory effect Against Fibronectin (number of adhered cells) (fibronectin; concentration 1.0 mg/ml) [cell/well] | Cell Adhesion-Inhibitory effect Against Fibronectin (number of adhered cells) (fibronectin; concentration 1.5 mg/ml) [cell/well] | Cell Adhesion-Inhibitory effect Against Fibronectin (number of adhered cells) (fibronectin; concentration .25 mg/ml) [cell/well] |
| --- | --- | --- | --- | --- | --- | --- | --- | --- | --- | --- |
| Succinylated CM-Chitin-Arg-Gly-Asp-Ser ({succinylated CM‑chitin}-RGDS) [CM--chitin derivative-2] | 18 | 10 | 137 | 96 | 78 | 59 | 99 | 82 | 75 | 135 |
| Succinylated CM-Chitin-(Arg-Gly-Asp)5 ({succinylated CM‑Chitin}-RGDRGDRGDRGDRGD) [CM--chitin derivative-12] | 30 | 8 | 150 | 101 | 80 | 59 | 101 | 89 | 77 | 125 |
| Sulfated Succinylated CM-Chitin-Gly-Arg-Gly-Asp-Ser ({sulfated succinylated CM‑chitin}-GRGDS) [CM--chitin derivative-16] | 12 | 2 | 122 | 81 | 63 | 40 | 81 | 75 | 50 | 103 |
| Sulfated CM-Chitin-Gly-Arg-Gly-Asp-Ser ({sulfated CM‑chitin}-GRGDS) [CM--chitin derivative-14] | 12 | 3 | 107 | 78 | 43 | 34 | 93 | 68 | 41 | 111 |
| Succinylated CM-Chitin Arg-Gly-Asp [CM--chitin derivative-9] | 28 | 9 | 139 | 88 | 77 | 58 | 97 | 85 | 65 | 121 |
| Maleyl Derivative of CM-Chitin Arg-Gly-Asp-Ser (RGDS; also: conjugated to maleyl CM-chitin) [CM--chitin derivative-3] | 21 | 7 | 141 | 87 | 69 | 49 | 100 | 77 | 55 | 123 |
| Sulfated Succinylated CM-Chitin-Arg-Gly-Asp-Ser ({sulfated succinylated CM‑chitin}-RGDS) [CM--chitin derivative-15] | 15 | 6 | 115 | 69 | 54 | 38 | 89 | 65 | 37 | 105 |
| CM-chitin-Arg-Gly-Asp-Ser-Gly-NH2 ({CM‑Chitin}-RGDSG-NH2; also: conjugated to CM-chitin) [CM--chitin derivative-17] | 14 | 5 | 114 | 76 | 48 | 33 | 84 | 61 | 35 | 99 |
| Itaconyl Derivative of CM-Chitin Arg-Gly-Asp-Ser (RGDS; also: conjugated to itaconyl CM-chitin) [CM--chitin derivative-5] | 17 | 12 | 129 | 91 | 80 | 48 | 105 | 86 | 72 | 136 |

Reference: US5298488A, “CM-chitin derivatives and use thereof” (Fuji Photo Film Co., Ltd., priority 1990, dated 1994)
